The values below come from patent publication US20130273057A1, “METHODS AND COMPOSITIONS FOR THE TREATMENT AND DIAGNOSIS OF VASCULAR INFLAMMATORY DISORDERS OR ENDOTHELIAL CELL DISORDERS” (Beth Israel Deaconess Medical Center, Inc., priority 2007, published 2013).

Ends that are not written are not given here.

For experiment [1], the system named is EphA2. The experiment is described as follows: EphA2 tyrosine phosphorylation in HUVECs stimulated with PAR agonistic peptides. Type of experiment: cell-based, human. The note with it: peptides at 20 μM as stimulants. As for the experimental part: FIG. 37 is an immunoblot showing PAR-1 activates EphA2. Confluent HUVECs were stimulated with PAR agonistic peptides TFLLR-NH2 (PAR-1) (SEQ ID NO: 11), RLLFT-NH2 (negative control for PAR-1) (SEQ ID NO: 12), SLIGKV-NH2 (PAR-2) (SEQ ID NO: 13), GYPGKF-NH2 (PAR-4) (SEQ ID NO: 14), and thrombin. Tyrosine phosphorylation of EphA2 was determined by western blot.
Methods: HUVECs were prepared and stimulated as described in above except that the following peptides at 20 μM were used as stimulants: TFLLR-NH2 (PAR-1; SEQ ID NO: 11), RLLFT-NH2 (negative control for PAR-1; SEQ ID NO: 12), SLIGKV-NH2 (PAR-2; SEQ ID NO: 13), and GYPGKF-NH2 (PAR-4; SEQ ID NO: 14).

The test system of experiment [2] is EphA2. As to the kind of experiment: EphA2 tyrosine phosphorylation in HUVECs (immunoprecipitation/4G10 western blot), Src dependence. Type of experiment: cell-based, human. As for the experimental part:
Confluent HUVECs were pretreated with either DMSO or PP2 for […] and then stimulated with 1 U/ml thrombin or […] Ephrin A1-FC. EphA2 was immunoprecipitated and tyrosine phosphorylation was detected by immunoblot using an anti-phophotyrosine antibody (top panel). The blot was stripped and reblotted with the EphA2 antibody for loading (bottom panel). Representative data from 3 independent experiments are shown.
Methods: Mouse EphrinA1 in a form of FC fusion was purchased from R and D Systems. Pharmacological agents PP2 was used to examine the role of Src in EphA2 phosphorylation. Confluent HUVECs were pretreated with PP2 (2 μM) or DMSO for 1 hour, followed by a 10-min treatment with sodium orthovandate (1 mM). Cells were then stimulated for 30 mins with either 1 U/ml thrombin or 250 ng/ml […]. HUVECs were lysed in RIPA buffer. Clarified lysates were immunoprecipitated with 2 μg of a polyclonal anti human EphA2 antibody (Santa Cruz) and Protein A/G Plus. Tyrosine phosphorylation and EphA2 were detected using the 4G10 and the EphA2 antibody (Santa Cruz), respectively.
A general note: Immunoblotting shows a protein as a band on a membrane.

In experiment [3] the test system is Tie-1-induced inflammation in HUVECs. The experiment is described as follows: p38 inhibition study, real-time PCR in HUVECs infected with Tie-1 adenovirus. Particulars: 48 hours post infection. It counts as cell-based, human. An excerpt:
FIG. 28 is a graph showing that Tie-1 induced endothelial inflammation is p38 dependent.
Adenovirus construction: For adenovirus production, we chose the AdEasy adenoviral expression system due to its ease of use and ability to generate high titer virus. Coding sequence of mouse Tie-1 excluding the endogenous leader sequence was amplified from cDNA prepared from mouse lung tissue. The following expression cassette was constructed: IgK leader sequence, a Flag epitope tag sequence, and the coding region of mouse Tie-1. This cassette was subcloned into the shuttle vector pAdTrack, which contains two CMV promoters to express the gene of interest and the green fluorescent protein (GFP) independently. After homologous recombination in the E. coli strain BJ5183 (Stratagene), the recombined pAdeasy DNA (PacI-cut) was used to transfect 293A cells (Invitrogen). After several rounds of amplification, the virus was purified using the Ad-Pure Adenoviral Purification Kit (BioVintage) and tittered using 293A as the host. Immediately prior to use, the virus was desalted and buffer-exchanged into endothelial growth medium using a spin column (Pierce). Adenoviral infection: Human umbilical vein endothelial cells (HUVECs) and human aortic endothelial cells (HAECs) were purchased from Cambrex and maintained as recommended by the manufacturer. To overexpress Tie-1, 200,000 endothelial cells were plated in one well of a […]. After overnight incubation, adenovirus harboring the Tie-1 expression cassette was added to the endothelial cells at MOI of 10:1. An “empty virus” expressing only GFP was used as a control. Seventeen hours later, medium was replaced with fresh medium. Cells were maintained and processed at the desired time points for the experiments described below. […] Lysates were immunoprecipitated with an anti-Tiel antibody (Santa Cruz, SC-342). Western blotting with anti phosphotyrosine antibody (4G10, Upstate) was used to determine the phosphorylation status of Tie-1. The membrane was stripped and reblotted with the anti-Tiel antibody. A portion of the lysates was immunoprecipitated with 4G10. Tyrosine phosphorylation of Tie-1 was confirmed by western blotting with the anti-Tiel antibody using these 4G10 immunoprecipitates. Antibody array experiment: HUVECs were infected as described. Forty-eight hours later, supernatants from Tie-1 expressing or GFP expressing cells were collected. After brief centrifugation to remove cell debris, the supernatants were spun through a 0.22-μm cellulose acetate filter (Spin-X, Costar). Cytokine and chemokine contents in the conditioned media were screened using the RayBio Human Inflammation Antibody Array 3.1(RayBiotech). Real-time polymerase chain reactions (PCR)—Total RNAs from endothelial cells were isolated by the RNAeasy Mini Kit (Qiagen) and used as templates in oligo-dT primed reverse transcription using the Superscript III reverse transcriptase (Invitrogen). Real-time PCRs were performed using the QuantiTect Probe PCR Kit (Qiagen) with the 7500 Real Time PCR System (Applied Biosystems). Gene of interest and GAPDH were multiplexed for normalization as described (Dupuy et al., Exp. Cell Res. 185: 363-372., (1989)). The following real time PCR probes were purchased from Applied Biosystems and used in this study: CCL2 5′-[…]-3′(SEQ ID NO: 27); VCAM-1: 5′-[…]-3 (SEQ ID NO: 28)′; ICAM: 5′-[…]-3′(SEQ ID NO: 29); CXCL10: 5′-[…]-3′(SEQ ID NO: 30); E-selectin: 5′-[…]-3′(SEQ ID NO: 31); IL-6: 5′-[…]-3′ (SEQ ID NO: 32). ELISA—HUVECs were infected as described above. Supernatants were collected from Tie-1 expressing or GFP expressing cells 70 hours post infection. The ELISA kit for human IL-6 was purchased from R and D Systems. Western blots—Endothelial cell lysates were prepared in denaturing SDS-PAGE loading buffer, sonicated, heated at 80° C. for 5 mins, and fractionated on SDS-PAGE. […]

A further experiment concerns ICAM-1. The experiment is described as follows: Thrombin-induced ICAM-1 upregulation in HUVECs, western blot. Type of experiment: cell-based, human. An excerpt: FIGS. 33A-33B show thrombin induction of ICAM-1 upregulation in HUVECs is dependent on EphA2. […] Representative data from 3 experiments are shown. FIG. 33B is a graph showing densitometric quantification of the results in […] normalized for fold increase in ICAM-1 expression. Results were reported as fold-increase in ICAM-1 expression relative to unstimulated controls. Data are mean±s.d. of three experiments; * p<0.002.
FIGS. 34A-34B show overexpression of mouse EphA2 rescues thrombin-induced ICAM-1 upregulation in HUVECs with endogenous EphA2 knocked down. […] The cells were treated with human EphA2 specific siRNA as indicated and ICAM-1 upregulation was induced using 1 U/ml thrombin for 6 hours (T). Representative data from 4 experiments are shown. […] “−” and “+” represent without or with thrombin stimulation (1 U/ml, 6 hr). Representative results from two experiments are shown.
Methods: Two validated Stealth siRNA duplexes specific to human EphA2 and a negative control duplexes were purchased from Invitrogen (EphA2 siRNA, catalog number: 12938-022, sequence: 5′-gca agg aag ugg uac ugc ugg acu u-3′ (siRNA #1, SEQ NO ID 33) and control siRNA, catalog number 12935-300, sequence: 5-ggg acc uga ugc aga aca uca uga a-3 (siRNA #2, SEQ NO ID 34)). […] ICAM-1 protein expression were detected by western blots using an anti ICAM-1 antibodies. […]

Another experiment deals with T1, thrombin (Homo sapiens, UniProt P00734).
T1 construct: tissue Calbiochem 527420; host or cells: human plasma added to HUVEC monolayers
As to the kind of experiment: In vitro thrombin activation colorimetric assay, HUVECs expressing Tie-1 endodomain with human plasma and chromogenic thrombin substrate. Type of experiment: cell-based. The note with it: hirudin 100 U/ml; HUVECs infected with Tie-1 endodomain adenovirus; absorbance at 405 nm. How it is done: HUVECs were either expressing GFP or Tie-1 endodomain. Whole human plasma supplemented with an excess chromogenic thrombin substrate (sarcosine-Pro-Arg-pNA) (Duncan, Bowie et al., Clin Chem 31: 853-855, (1985)) was added to HUVECs. Cleavage carboxyl-terminal to the arginine residue by thrombin releases […], which can be monitored by absorbance at 405 nm.
Methods: HUVECs were grown to confluency in a 12-well plate. Cells were either uninfected, infected with control GFP adenovirus, or Tie-1 endodomain adenovirus. Next day, medium was changed to fresh full EGM2-MV. 72-hr post infection, cells were washed with EBM2 basal medium (without phenol red), and 0.5 ml of assay medium [EBM2 basal medium (without phenol red)/10% human plasma (Calbiochem 527420)/200 μM chromogenic thrombin substrate (Calbiochem 539518)] was added. Hirudin (Calbiochem 377853, 100 U/ml) was added to one set of cells infected with Tie-1 endodomain. The assay was quenched by the addition of aprotinin (Sigma A1154, 5.6 U/ml). Absorbance at 405 nm was measured using a spectrophotometer and used as an indicator of thrombin activity. […]
Results: We used a colorimetric assay to determine whether expression of Tie-1 endodomain could induce activation of thrombin in vitro. […] Thrombin activation was detected by an increase in absorbance of the cleaved thrombin substrate ([…]) at 405 nm. […]

Experiment [4] concerns stenosis after balloon angioplasty. The note with it: rabbit, rat, and pig models; cited from earlier work.

Take GYPGKF-NH2 [PAR-4 specific agonist]: the “EphA2 tyrosine phosphorylation (transactivation) in HUVECs” value with EphA2 [1] is “failed to induce”.
Consider `CC(C)(C)n1nc(-c2ccc(Cl)cc2)c2c(N)ncnc21` [PP2], for which the “tyrosine phosphorylation of EphA2 by EphrinA1, sensitivity to PP2” value in the experiment with EphA2 [2] (PP2 2 μM 1 hour, 250 ng/ml EphrinA1-FC 30 mins) is listed as “insensitive”. Besides, in the experiment on EphA2 [2] (PP2 2 μM 1 hour, 1 U/ml thrombin 30 mins), the “thrombin-induced EphA2 tyrosine phosphorylation” value is reported as “completely abrogated”.
Regarding `C[S+]([O-])c1ccc(-c2nc(-c3ccncc3)c(-c3ccc(F)cc3)[nH]2)cc1` (centres unmarked) [SB-203580], in experiment [3], the “Tie-1-induced CCL2 upregulation” value is reported as “Significant inhibition”, the “Tie-1-induced ICAM-1 upregulation” value is “Significant inhibition”, the “Tie-1-induced upregulation of E-selectin mRNA” value is given as “almost completely blocked” and the “Tie-1-induced upregulation of IL-6 mRNA” value is “almost completely blocked”. In addition, in experiment [3], the “Tie-1-induced upregulation of IP-10 mRNA” value is on record as “almost completely blocked” and the “Tie-1-induced upregulation of VCAM-1 mRNA” value is on record as “almost completely blocked”.
Turning to “soluble EphA2: soluble EphA2 added in excess during thrombin stimulation”, in the experiment on ICAM-1 (soluble EphA2 at concentrations up to 1 μg/ml, thrombin 1 U/ml, 6 hr), the “ICAM-1 expression induced by thrombin, block by co-incubation” value is “failed to block”.
Consider RLLFT-NH2, for which the “EphA2 tyrosine phosphorylation (transactivation) in HUVECs” value with EphA2 [1] is “failed to induce”.
Take hirudin: the “cleavage of the chromogenic thrombin substrate” value on thrombin is listed as “completely blocked”. Besides, the “development of stenosis after balloon angioplasty” value in experiment [4] was “reduces”.
With “TFLLR-NH2 [PAR-1 specific agonistic peptide]”, the “EphA2 tyrosine phosphorylation (transactivation) in HUVECs” value in the experiment on EphA2 [1] is on record as “recapitulated EphA2 transactivation”.
Regarding SLIGKV-NH2 [PAR-2 specific agonist], the “EphA2 tyrosine phosphorylation (transactivation) in HUVECs” value in the experiment on EphA2 [1] is on record as “failed to induce”.

B1: EphrinA1-FC: Mouse EphrinA1 in a form of FC fusion, R and D Systems (protein)
chain: DRHIVFWNSSNPKFREEDYTVHVQLNDYLDIICPHYEDDSVADAAMERYTLYMVEHQEYVACQPQSKDQVRWNCNRPSAKHGPEKLSEKFQRFTPFILGKEFKEGHSYYYISKPIYHQESQCLKLKVTVNGKITHNPQAHVNPQEKRLQADDPEVQVLHSIGYS
modifications: left off: a dimerising Fc or GST
notes: Mouse EphrinA1 in a form of FC fusion, R and D Systems
In the case of B1, the “stimulation of ICAM-1 expression” value in the experiment on ICAM-1 (EphrinA1-FC up to 10 μg/ml, no thrombin) was “did not stimulate”. In the experiment on EphA2 [2] (FC-fusion protein, 250 ng/ml, 30 mins), the “activation of EphA2 in endothelial cells” value is on record as “induced significant activation”.
